This note sets out measurements from US8664399B2, “Substituted heterocyclic compounds as ion channel modulators” (Gilead Sciences, Inc., priority 2008, dated 2014).

Common to all, as to type: cell-based
The target of one series is T1, hERG potassium channel (Homo sapiens, UniProt Q12809).
T1 construct: expressed in transfected cells; host or cells: CHO (Chinese Hamster Ovary)
As to the kind of experiment: hERG screening assay (PatchXpress automated patch clamp, CHO cell line). As to conditions: CHO cells; for hERG Patch Clamp hERG % blk (1 μm test cmpd): 1 μm test compound; for hERG Patch Clamp hERG % blk (10 μm test cmpd): 10 μm test compound. The method, then:
Compounds were screened to test their activity in blocking the hERG potassium channel. The hERG channel is heterologously expressed in a CHO (Chinese Hamster Ovary) cell line. Cells were maintained with standard tissue culture procedures and stable channel expression is maintained with 500 μg/ml G418 in the culture medium. Cells were harvested for testing on the PatchXpress automated patch clamp with Accumax (Innovative Cell Technologies, San Diego, Calif.) to isolate single cells.
The following solutions were used for electrophysiological recordings. The external solution contains: 2 mM CaCl2; 2 mM MgCl2; 4 mM KCl; 150 mM NaCl; 10 mM Glucose; 10 mM HEPES (pH 7.4 with 1M NaOH, osmolarity). The internal solution contained: 140 mM KCl, 10 mM MgCl2, 6 mM EGTA, 5 mM HEPES, 5 mM ATP (pH adjusted to 7.25 with KOH).
hERG channels are activated when the voltage is stepped to +20 mV from the −80 mV holding potential. During a 5 second step at +20 mV, the channels activate and then largely inactivate, so the currents are relatively small. Upon returning to −50 mV from +20 mV, hERG currents transiently become much larger as inactivation is rapidly removed and then the channel closes. The first step to −50 mV for 300 ms is used as a baseline for measuring the peak amplitude during the step to −50 mV after channel activation. The peak current at −50 mV was measured both under control conditions and after addition of compound.
All compounds were prepared as 10 mM DMSO stocks in glass vials. Stock solutions were mixed by vigorous vortexing and sonication for about 2 minutes at room temperature. For testing, compounds were diluted in glass vials using an intermediate dilution step in pure DMSO and then further diluted to working concentrations in external solution. Dilutions were prepared no longer than 20 minutes before use.
After achieving the whole-cell configuration, cells were monitored for 90 seconds to assess stability and washed with external solution for 66 seconds. The voltage protocol described above was then applied to the cells every 12 seconds and throughout the whole procedure. Only cells with stable recording parameters and meeting specified health criteria were allowed to enter the compound addition procedure.
External solution containing 0.1% DMSO (vehicle) was applied to the cells first to establish the control peak current amplitude. After allowing the current to stabilize for 3 to 5 minutes, 1 μM and then 10 μM test compounds was applied. Each compound concentration was added 4 times and cells were kept in test solution until the effect of the compound reaches steady state or for a maximum of 12 minutes. After addition of test compound, a positive control (1 μM Cisapride) was added and must block >95% of the current for the experiment to be considered valid. Washout in the external solution compartment was performed until the recovery of the current reaches steady state. Data were analyzed using DataXpress, Clampfit (Molecular Devices, Inc., Sunnyvale) and Origin 7 (Originlab Corp.)
A general note: Block of hERG is tested as a sign of cardiac risk.

Series [1] addresses T2, human cardiac sodium channel, hNav1.5 (Homo sapiens, UniProt Q14524).
T2 construct: host or cells: HEK293
Description: Late INa screening assay (automated whole cell patch clamp, PatchXpress; late current generated with 10 μM Tefluthrin). As to conditions: HEK293 cells expressing hNav1.5; for inhibition at 10 µM: 10 μM test compound, read-out: Late Ina % blk (10 μM test cmpd); for Late Ina % blk (1 μM test cmpd): 1 μM test compound. As to the method: The late sodium current (Late INa) and peak sodium current (Peak INa) assays were performed on an automated electrophysiology platform, PatchXpress 7000A (MDS Analytical Technologies, Sunnyvale, Calif.), which uses the whole cell patch clamp technique to measure currents through the cell membrane of up to 16 cells at a time. The assay uses an HEK293 (human embryonic kidney) cell line heterologously expressing the wild-type human cardiac sodium channel, hNav1.5, purchased from Millipore (Billerica, Mass.). No beta subunits were coexpressed with the Na channel alpha subunit. Cells were maintained with standard tissue culture procedures and stable channel expression was maintained with 400 μg/ml Geneticin in the culture medium. Cells isolated for use on PatchXpress were incubated for 5 minutes in Versene 1X and then for 2 minutes in 0.0125% Trypsin-EDTA (both at 37° C.) to ensure that 80-90% of the cells are single and not part of a cell cluster. Experiments were carried out at 24-27° C.
For both the Late INa and Peak INa assays, series resistance compensation was set to 50% and whole-cell compensation is performed automatically. Currents were low-pass filtered at 10 kHz and digitized at 31.25 kHz. Currents through open sodium channels were automatically recorded and stored in the DataXpress2 database (MDS Analytical Technologies, Sunnyvale, Calif.). Analysis is performed using DataXpress2 analysis software and data are compiled in Excel.
Compound stocks were routinely made in glass vials to 10 mM in dimethyl sulfoxide (DMSO). In some cases, when compounds were not soluble in DMSO, they were made in 100% ethanol. Stocks were sonicated as necessary. The extracellular solution for screening Late INa was composed of: 140 mM NaCl, 4 mM KCl, 1.8 mM CaCl2, 0.75 mM MgCl2, and 5 mM HEPES with pH adjusted to 7.4 using NaOH. The extracellular solution for screening Peak INa was composed of: 20 mM NaCl, 120 mM N-methyl-D glucamine, 4 mM KCl, 1.8 mM CaCl2, 0.75 mM MgCl2, and 5 mM HEPES with pH adjusted to 7.4 using HCl. The intracellular solution used to perfuse the inside of the cells for both the Late INa and Peak INa assays contained: 120 mM CsF, 20 mM CsCl, 5 mM EGTA, 5 mM HEPES and pH adjusted to 7.4 with CsOH. […] The 0Na extracellular solution used at the end of each experiment for the Late INa and Peak INa assays to measure baseline current contained: 140 mM N-methyl-D-glucamine; 4 mM KCl; 1.8 mM CaCl2; 0.75 mM MgCl2; 5 mM HEPES and pH was adjusted to 7.4 with HCl.
For the Late INa assay, sodium channels were activated every 10 seconds (0.1 Hz) by depolarizing the cell membrane to −20 mV for 250 milliseconds (ms) from a holding potential of −120 mV. In response to a −20 mV voltage step, typical Nav1.5 sodium currents activate rapidly to a peak negative current and then inactivate nearly completely within 3-4 ms.
All compounds were tested to determine their activity in blocking the late sodium current. Late INa current was generated by adding 10 μM Tefluthrin (pyrethroid) to the extracellular solution while recording Na currents.
(In general: Patch clamp records ionic current or voltage across a cell membrane.)

In series [2] the target is T3, human Nav1.7 (hNav1.7+β1 subunits) channels expressed in HEK293 cells (Homo sapiens, UniProt Q15858).
T3 construct: expressed in transfected cells; host or cells: HEK293
As to the kind of experiment: Nav1.7 screening assay (fluorescent dye-based membrane potential assay, veratridine). As to conditions: veratridine 50 μmol/L, read-out: IC50 for reduction of Nav1.7 Na+ current.

T1 sequence (Q12809 whole entry): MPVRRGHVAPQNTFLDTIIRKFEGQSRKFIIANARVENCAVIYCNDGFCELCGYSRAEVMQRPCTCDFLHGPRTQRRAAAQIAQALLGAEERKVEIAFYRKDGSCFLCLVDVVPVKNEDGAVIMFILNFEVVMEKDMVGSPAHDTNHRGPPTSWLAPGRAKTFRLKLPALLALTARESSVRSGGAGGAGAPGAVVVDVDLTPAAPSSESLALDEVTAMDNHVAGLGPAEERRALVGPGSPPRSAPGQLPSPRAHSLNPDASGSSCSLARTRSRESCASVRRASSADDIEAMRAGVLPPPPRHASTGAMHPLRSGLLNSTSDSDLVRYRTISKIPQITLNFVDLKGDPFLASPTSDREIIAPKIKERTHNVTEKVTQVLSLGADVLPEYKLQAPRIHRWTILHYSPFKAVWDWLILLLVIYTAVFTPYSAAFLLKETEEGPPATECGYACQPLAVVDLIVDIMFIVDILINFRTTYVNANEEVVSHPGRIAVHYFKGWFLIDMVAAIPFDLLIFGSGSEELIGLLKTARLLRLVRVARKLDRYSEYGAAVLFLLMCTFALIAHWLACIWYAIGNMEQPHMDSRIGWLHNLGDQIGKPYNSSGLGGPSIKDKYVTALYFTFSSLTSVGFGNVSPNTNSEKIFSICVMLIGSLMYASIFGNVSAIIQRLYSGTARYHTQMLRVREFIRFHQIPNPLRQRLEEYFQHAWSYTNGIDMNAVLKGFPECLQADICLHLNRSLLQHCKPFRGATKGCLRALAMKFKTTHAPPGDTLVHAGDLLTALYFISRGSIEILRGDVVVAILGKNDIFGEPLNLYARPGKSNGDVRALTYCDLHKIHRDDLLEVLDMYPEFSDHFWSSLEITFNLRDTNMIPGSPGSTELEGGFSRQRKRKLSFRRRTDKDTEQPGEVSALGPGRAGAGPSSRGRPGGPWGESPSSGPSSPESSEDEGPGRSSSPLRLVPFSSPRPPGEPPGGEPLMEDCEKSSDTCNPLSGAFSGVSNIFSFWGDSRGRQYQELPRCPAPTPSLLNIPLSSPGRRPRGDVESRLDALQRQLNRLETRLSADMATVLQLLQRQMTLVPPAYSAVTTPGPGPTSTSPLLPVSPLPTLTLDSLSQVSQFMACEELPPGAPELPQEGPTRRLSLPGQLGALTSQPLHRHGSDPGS
T2 sequence (Q14524 whole entry): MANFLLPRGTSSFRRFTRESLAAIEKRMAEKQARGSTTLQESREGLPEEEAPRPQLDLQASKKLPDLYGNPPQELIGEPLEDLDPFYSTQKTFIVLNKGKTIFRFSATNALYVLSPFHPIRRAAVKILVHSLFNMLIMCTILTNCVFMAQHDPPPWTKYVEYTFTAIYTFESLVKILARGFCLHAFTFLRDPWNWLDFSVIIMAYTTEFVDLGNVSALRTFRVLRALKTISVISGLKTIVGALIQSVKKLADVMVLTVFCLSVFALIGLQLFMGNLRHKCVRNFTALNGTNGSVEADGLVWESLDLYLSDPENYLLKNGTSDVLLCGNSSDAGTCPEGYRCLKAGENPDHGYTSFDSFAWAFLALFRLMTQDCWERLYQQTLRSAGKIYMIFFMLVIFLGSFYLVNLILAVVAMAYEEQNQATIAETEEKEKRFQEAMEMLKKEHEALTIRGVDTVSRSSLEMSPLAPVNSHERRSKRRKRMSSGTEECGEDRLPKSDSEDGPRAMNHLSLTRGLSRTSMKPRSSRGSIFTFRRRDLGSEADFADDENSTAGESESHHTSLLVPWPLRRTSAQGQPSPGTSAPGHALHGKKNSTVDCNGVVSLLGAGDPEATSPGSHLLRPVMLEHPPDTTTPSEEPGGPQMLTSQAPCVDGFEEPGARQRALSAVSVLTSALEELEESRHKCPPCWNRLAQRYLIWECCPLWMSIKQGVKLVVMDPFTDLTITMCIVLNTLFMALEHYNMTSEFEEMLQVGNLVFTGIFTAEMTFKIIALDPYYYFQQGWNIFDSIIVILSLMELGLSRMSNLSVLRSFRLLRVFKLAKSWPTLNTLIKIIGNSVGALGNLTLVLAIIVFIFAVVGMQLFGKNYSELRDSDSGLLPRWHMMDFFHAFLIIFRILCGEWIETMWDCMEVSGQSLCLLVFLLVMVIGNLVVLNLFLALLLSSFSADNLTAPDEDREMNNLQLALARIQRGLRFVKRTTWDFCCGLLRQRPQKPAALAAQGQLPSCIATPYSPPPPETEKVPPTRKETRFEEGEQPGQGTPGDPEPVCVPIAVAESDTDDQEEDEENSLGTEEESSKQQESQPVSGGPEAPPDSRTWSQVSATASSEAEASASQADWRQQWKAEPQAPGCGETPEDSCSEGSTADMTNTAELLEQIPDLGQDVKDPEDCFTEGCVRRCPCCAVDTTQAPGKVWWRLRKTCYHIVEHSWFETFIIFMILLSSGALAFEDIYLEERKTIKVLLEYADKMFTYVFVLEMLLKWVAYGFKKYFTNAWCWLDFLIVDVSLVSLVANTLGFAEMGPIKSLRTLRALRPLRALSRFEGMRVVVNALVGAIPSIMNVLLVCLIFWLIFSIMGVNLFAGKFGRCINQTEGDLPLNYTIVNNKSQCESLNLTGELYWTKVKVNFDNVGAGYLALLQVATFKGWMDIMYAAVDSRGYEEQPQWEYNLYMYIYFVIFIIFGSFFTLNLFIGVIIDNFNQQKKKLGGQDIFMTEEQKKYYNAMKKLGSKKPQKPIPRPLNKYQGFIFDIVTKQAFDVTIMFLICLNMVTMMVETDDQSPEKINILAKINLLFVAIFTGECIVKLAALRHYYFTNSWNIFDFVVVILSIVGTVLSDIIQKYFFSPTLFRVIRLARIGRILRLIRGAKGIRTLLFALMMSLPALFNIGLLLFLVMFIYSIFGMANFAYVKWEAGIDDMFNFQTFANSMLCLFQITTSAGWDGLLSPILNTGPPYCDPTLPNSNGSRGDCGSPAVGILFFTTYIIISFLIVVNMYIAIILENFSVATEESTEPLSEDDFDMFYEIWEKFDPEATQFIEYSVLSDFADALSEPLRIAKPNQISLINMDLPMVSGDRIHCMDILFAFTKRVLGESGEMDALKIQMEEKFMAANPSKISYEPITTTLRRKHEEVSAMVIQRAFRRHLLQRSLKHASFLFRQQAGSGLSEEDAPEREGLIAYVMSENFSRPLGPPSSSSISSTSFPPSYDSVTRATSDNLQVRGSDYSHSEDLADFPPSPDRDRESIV

With `Cc1nc2ccc(Cl)cc2c(-c2ccccc2)c1-c1nnc(Cc2ccc(Cl)cc2)o1` [PT-005, 6-chloro-3-[5-(4-chlorobenzyl)-1,3,4-oxadiazol-2-yl]-2-methyl-4-phenylquinoline], on hERG potassium channel, the “hERG Patch Clamp hERG % blk (1 μm test cmpd)” value is listed as 10.5% and the “hERG Patch Clamp hERG % blk (10 μm test cmpd)” value is 32.5%. Also, the inhibition at 10 µM in series [1] turned out to be 43.6%. Moreover, the IC50 (usually the point on the concentration scale where inhibition reaches its midpoint) in series [2] was 0.2 µM.
Take `CCOC(=O)c1c(Cn2ccnc2)nc2ccc(Cl)cc2c1-c1ccccc1` [PT-008, ethyl 6-chloro-2-(1H-imidazol-1-ylmethyl)-4-phenylquinoline-3-carboxylate]: on hERG potassium channel, the “hERG Patch Clamp hERG % blk (1 μm test cmpd)” value is 43.0% and the “hERG Patch Clamp hERG % blk (10 μm test cmpd)” value is 94.5%. Moreover, in series [1], the inhibition at 10 µM stood at 41.1%.
For the compound `CCOC(=O)c1c(CN2C(=O)CCC2=O)nc2ccc(Cl)cc2c1-c1ccccc1` [PT-009, ethyl 6-chloro-2-[(2,5-dioxopyrrolidin-1-yl)methyl]-4-phenylquinoline-3-carboxylate], at hERG potassium channel, the “hERG Patch Clamp hERG % blk (1 μm test cmpd)” value came to 24.0% and the “hERG Patch Clamp hERG % blk (10 μm test cmpd)” value amounted to 65.5%. In series [1], the inhibition at 10 µM was 53.3%.
Take `CCOC(=O)c1c(Cn2cnnn2)nc2ccc(Cl)cc2c1-c1ccccc1` [PT-010, ethyl 6-chloro-4-phenyl-2-(1H-tetrazol-1-ylmethyl)quinoline-3-carboxylate]: at hERG potassium channel, the “hERG Patch Clamp hERG % blk (1 μm test cmpd)” value worked out at 18.5% and the “hERG Patch Clamp hERG % blk (10 μm test cmpd)” value was 66.0%. Moreover, the inhibition at 10 µM in series [1] amounted to 41.6%.
As for `Cc1nc2ccc(Cl)cc2c(-c2ccccc2)c1C(=O)OC(c1ccccc1)C1CC1` (stereo not shown) [PT-012, cyclopropyl(phenyl)methyl 6-chloro-2-methyl-4-phenylquinoline-3-carboxylate], on hERG potassium channel, the “hERG Patch Clamp hERG % blk (1 μm test cmpd)” value stood at 10.5% and the “hERG Patch Clamp hERG % blk (10 μm test cmpd)” value was 13.5%. Besides, the inhibition at 10 µM in series [1] worked out at 20.5%.
For `Cc1nc2ccc(Cl)cc2c(-c2ccccc2)c1C(=O)OCC1CC1` [PT-016, cyclopropylmethyl 6-chloro-2-methyl-4-phenylquinoline-3-carboxylate], on hERG potassium channel, the “hERG Patch Clamp hERG % blk (1 μm test cmpd)” value amounted to 30.5% and the “hERG Patch Clamp hERG % blk (10 μm test cmpd)” value came out at 73.0%. For the same compound, in series [1], the inhibition at 10 µM was found to be 59%. Also, the IC50 in series [2] was determined as 37.5 µM.
On to `Cc1nc2ccc(Cl)cc2c(-c2ccccc2)c1C(=O)N1CCC(c2ccc(C(N)=O)cc2)CC1` [PT-017, 4-{1-[(6-chloro-2-methyl-4-phenylquinolin-3-yl)carbonyl]piperidin-4-yl}benzamide], for which, on hERG potassium channel, the “hERG Patch Clamp hERG % blk (1 μm test cmpd)” value is 28.5% and the “hERG Patch Clamp hERG % blk (10 μm test cmpd)” value came out at 51.0%. Besides, the inhibition at 10 µM in series [1] amounted to 29.4%.
For the compound `Cc1nc2ccccc2c(C)c1C(=O)OCc1ccc(Cl)cc1` [PT-019, 4-chlorobenzyl 2,4-dimethylquinoline-3-carboxylate], at hERG potassium channel, the “hERG Patch Clamp hERG % blk (1 μm test cmpd)” value turned out to be 10.0% and the “hERG Patch Clamp hERG % blk (10 μm test cmpd)” value is 62.5%. In series [1], the “Late Ina % blk (1 μM test cmpd)” value is 22.5% and the inhibition at 10 µM is 70.1%.
As to `Cc1nc2ccc(Cl)cc2c(-c2ccccc2Cl)c1C(=O)OCc1ccccc1Br` [PT-027, 2-bromobenzyl 6-chloro-4-(2-chlorophenyl)-2-methylquinoline-3-carboxylate], in series [1], the inhibition at 10 µM was 45.3%.
Regarding `Cc1nc2ccccc2c(C)c1C(=O)OCc1ccccc1Br` [PT-028, 2-bromobenzyl 2,4-dimethylquinoline-3-carboxylate], in series [1], the “Late Ina % blk (1 μM test cmpd)” value is recorded as 39.2% and the inhibition at 10 µM is 82.4%.
Regarding `CCOC(=O)c1c(C)nc2ccc(Cl)cc2c1-c1ccccc1` [PT-029, ethyl 6-chloro-2-methyl-4-phenylquinoline-3-carboxylate], the inhibition at 10 µM in series [1] was determined as 70.2%.
In the case of `CCOC(=O)c1c(C)nc2ccc(Cl)cc2c1-c1ccccc1F` [PT-030, ethyl 6-chloro-4-(2-fluorophenyl)-2-methylquinoline-3-carboxylate], in series [1], the inhibition at 10 µM came to 55.4%.
Same read-out and setting: under `Cc1nc2ccccc2c(C)c1-c1nnc(C(C)(C)c2ccc(Cl)cc2)o1` [PT-031, 3-{5-[2-(4-chlorophenyl)propan-2-yl]-1,3,4-oxadiazol-2-yl}-2,4-dimethylquinoline] stands 64.4%; under `Cc1nc2ccc(Cl)cc2c(C)c1C(=O)OCc1ccccc1Br` [PT-032, 2-bromobenzyl 6-chloro-2,4-dimethylquinoline-3-carboxylate], 82.4%.
